This note sets out measurements from patent US20170105407A1, “COMPOSITIONS AND METHODS FOR ENHANCING RED BLOOD CELL STORAGE TIME AND SURVIVABILITY USING NITRIC OXIDE RELEASING HYBRID HYDROGEL NANOPARTICLES” (ALBERT EINSTEIN COLLEGE OF MEDICINE, INC., priority 2014, published 2017).

SMILES strings stand for the structures. “Also recorded” adds a separate entry of the source.

The test system of data set [1] is stored RBCs. Nature of the data set: Storage lesion parameters of stored RBCs over 42 days (2,3-DPG, potassium, pH, free hemoglobin, microparticles). To be noted: for 2,3 DPG level during storage / Levels of free hemoglobin (hemolysis) during storage / Potassium levels during storage / pH (acidification) during storage: all species (human, hamster, rat), 42 days storage; for Microparticle formation in stored blood: human, hamster, rat blood. In kind it is cell-based, human, hamster, rat. The procedure:
NO releasing nanoparticles were added to the blood at 10 mg per 125 mL of whole blood. Stored blood was treated with the nanoparticles once every 48 hours at the above described dosing over a period of 21 days for the in vivo transfusion studies. The storage lesion studies were extended to a period of 6 weeks.
In this example, the procedure was substantially the same as Example 6.1, except that transfused blood was stored for 42 days, and included human, hamster, and rat blood. FIGS. 5(D)-(F) show potassium levels and hemolysis over a six week period.
Human RBC units were purchased from the San Diego Blood bank. Blood were preserved in blood collection bags and kept at 4° C.
Blood was obtained from donor rats (˜300 g) Animals were anaesthetized (pentobarbital 60 mg/kg ip) and a femoral catheter (PE-50) was implanted and blood was drawn into 10 mL syringes containing 1.5 mL of citrate, phosphate, dextrose adenine solution (CPDA-1). Blood was leukoreduced, by passing through a neonatal high efficiency leukocyte reduction filter Purecell NEO (Pall Company, East Hills, N.Y.). The leukoreduced blood was centrifuged for 10 minutes at 1350 rpm and supernatant was partially removed to achieve approximately 75% Hct. Packed cell were transferred under sterile conditions to a preservative free blood collection tube and kept at 4° C.
Blood was obtained from donor hamsters (˜80 g). Hamsters were anaesthetized (pentobarbital 60 mg/kg ip) and femoral catheter implanted. The blood from three hamsters was drawn into 10 mL syringes containing 1.5 mL CPDA-1, then leukoreduced as described before and centrifuged. Hamster packed cells were preserved in blood collection tube and kept at 4° C.

In data set [2] the test system is stored RBCs. Description: RBC glycolytic metabolism during storage over 42 days. Type of data set: cell-based. The following applies: for ATP produced vs control / Adenine in stored blood vs control / Citrate in stored blood vs control / Glucose in stored blood vs control / Lactate produced vs control / Mannitol in stored blood vs control / Pyruvate produced vs control: over 42 days. The procedure: In this example, the glyocotic metabolic mechanism was tested in stored blood. […] The main metabolic pathway of RBC is glycolysis and is primarily fueled by glucose. Glucose enters a RBC and is metabolized to produce ATP, and also pyruvate which in turn is converted to lactate. […] This pathway serves primarily to reduce nicotinamide adenine dinucleotide phosphate (NADPH). In conjunction with the glutathione reductase/peroxidase system, NADPH maintains the sulfhydryl groups of globin in their reduced state.
In order to test RBC metabolism, four sets of stored RBCs were tested: RBCs treated with NO releasing nanoparticles (NOnp), RBCs treated with the S-nitrosothiol derivative of glutathione (GSNO), RBCs treated with NONOates (DTPANO), and a control group of RBCs that were not supplemented. GSNO, which due to its long half-life and ability to transnitrosate, has greater antimicrobial activity then NOnp alone against clinical isolates of gram positive and negative multi drug resistant pathogens. Given both the extended bioactive lifetime of GSNO compared to free NO and the potential differences in target tissues/cells and the success achieved with the NO releasing nanoparticle platform, it was undertaken to produce nanoparticles that were similar in character and structure, but with the capability of either releasing GSNO species or transferring NO via S-transnitrosation. FIGS. 8(A)-(D) show the behavior of various elements of the first step of the glycotic pathway over a period of 42 days. […] FIGS. 8(B)-(D) show the amount of adenine, mannitol, and citrate respectively. […] This is important because these components help RBCs resynthesize the energy carrier adenosine triphosphate (ATP). ATP is a key component in extending the shelf life of stored blood. FIGS. 9(A)-(D) depict the key components in the next step of the glycotic pathway, wherein ATP is created and pyruvate is produced and then converted to lactate. The longevity of stored blood increases as more ATP is produced and less pyruvate and lactate is produced. […] Overall, NOnp and GSNO treated RBC are much slower to lose initial metabolic markers of RBC health than both untreated RBCs and those treated with NONOates.

A further data set concerns stored blood. Nature of the data set: Buildup of methemoglobin, plasma nitrite and plasma nitrate in stored blood over six weeks. The following applies: over a period of six weeks. In kind it is cell-based. The procedure:
In this example, the buildup of methemoglobin (MetHb), plasma nitrite and plasma nitrate was also measured over a period of six weeks. […] Nitrite levels were measured because higher nitrate levels are associated with positive RBC health and functionality. […] NO supplementation limits the progressive loss of nitrite and nitrate in RBCs, and such loss of nitrite and nitrate has been correlated with an increase in oxidative damage.

A further data set relates to RBC. Description: Mechanical properties (flexibility) of RBCs during storage. In kind it is cell-based. The following applies: at 1 week, 3 weeks, 5 weeks and 6 weeks of storage. The source says:
In this example, as shown in FIGS. 16(A)-(D), RBC flexibility is slowed for RBCs treated with NOnps and GSNO.

On to `NCCCN(CCCN)/[N+]([O-])=N/O` [DPTANO], for which, in the data set with stored RBCs [1], the “2,3 DPG level during storage” value is “prevented 2,3 DPG rapid decrease”; the “Levels of free hemoglobin (hemolysis) during storage” value is listed as “either did not significantly differentiate from the control, or performed worse”; the “Potassium levels during storage” value is reported as “either did not significantly differentiate from the control, or performed worse”; the “pH (acidification) during storage” value is reported as “either did not significantly differentiate from the control, or performed worse”. Besides, the “Microparticle formation in stored blood” value with stored RBCs [1] is reported as “faired similarly or worse than the control”. In the data set with stored RBCs [2], the “ATP produced vs control” value is reported as “only produces slightly less than the control”, the “Adenine in stored blood vs control” value was “retained higher amounts of each component than the control”, the “Citrate in stored blood vs control” value is reported as “retained higher amounts of each component than the control” and the “Glucose in stored blood vs control” value is reported as “maintaining slightly higher amounts of glucose”. In the data set on stored RBCs [2], the “Lactate produced vs control” value was “the control produces much more pyruvate and lactate”; the “Mannitol in stored blood vs control” value is given as “retained higher amounts of each component than the control”; the “Pyruvate produced vs control” value is “the control produces much more pyruvate and lactate”. In addition, the “Methemoglobin (MetHb) formation” value in the data set with stored blood was “more met Hb formation; also recorded: increased the formation of met-hemoglobin”. For the same compound, the RBC flexibility entry in the data set with RBC is “did not vary substantially from that of untreated blood”.
Regarding `N[C@@H](CCC(=O)N[C@@H](CSN=O)C(=O)NCC(=O)O)C(=O)O` [GSNO, S-nitrosothiol derivative of glutathione], in the data set with stored RBCs [1], the “2,3 DPG level during storage” value is on record as “prevented 2,3 DPG rapid decrease”, the “Levels of free hemoglobin (hemolysis) during storage” value is recorded as “did not increase the levels of free hemoglobin”, the “Potassium levels during storage” value is “slowed down potassium levels” and the “pH (acidification) during storage” value is listed as “prevented rapid acidification”. In addition, the “Microparticle formation in stored blood” value with stored RBCs [1] was “reduced microparticle formation”. For the same compound, in the data set with stored RBCs [2] (during storage), the “Glucose-6-phosphate dehydrogenase (G6PD) vs control” value is “maintained or even enhanced”, the “Glyceraldehyde 3-phosphate dehydrogenase (GAPDH) vs control” value is “maintained or even enhanced”, the “Hexokinase (HK) vs control” value is reported as “maintained or even enhanced” and the “Phosphofructokinase (PFK) vs control” value is “maintained or even enhanced”. Also, in the data set on stored RBCs [2] (during storage), the “Pyruvate kinase (PK) vs control” value was “maintained or even enhanced”. Also, in the data set with stored RBCs [2], the “ATP produced vs control” value was “produce more ATP than the control”, the “Adenine in stored blood vs control” value is recorded as “retained higher amounts of each component than the control”, the “Citrate in stored blood vs control” value is “retained higher amounts of each component than the control” and the “Glucose in stored blood vs control” value is on record as “maintaining slightly higher amounts of glucose”. Also, in the data set with stored RBCs [2], the “Lactate produced vs control” value is “the control produces much more pyruvate and lactate”; the “Mannitol in stored blood vs control” value is given as “retained higher amounts of each component than the control”; the “Pyruvate produced vs control” value is “the control produces much more pyruvate and lactate”. For the same compound, the “Methemoglobin (MetHb) formation” value in the data set on stored blood is reported as “did not generate significantly more MetHb than the control”. In the data set on RBC, the RBC flexibility result was “remained more flexible than untreated and DPTANO treated blood”.
